Where “and” joins values, the source holds several entries; their conditions need not be identical. Identical values can stand only once. Like-named read-outs stand apart in the source and are kept apart here.
Experiments:
[1] = test system: DRG neurons from trpa1+/+ mice; test: Calcium imaging of DRG neurons from trpa1+/+ mice; type: cell-based; settings: trpa1+/+ mouse DRG neurons; percentage of response to 50 mM KCl
[2] = test system: DRG neurons from trpa1-/- mice; test: Calcium imaging of DRG neurons from trpa1-/- mice; type: cell-based; settings: trpa1-/- mouse DRG neurons; percentage of response to 50 mM KCl
rat nodose neurons = test: Calcium imaging of rat nodose ganglion neurons; type: cell-based; settings: for percentage of rat nodose neurons responding with [Ca2+]i increase: positive = at least 15% of response to 50 mM KCl, H2O2 5 mM, AITC 50 μM
mouse TRPA1 [3] = biological target: T1, mouse TRPA1 (Mus musculus, UniProt Q8BLA8); test: [Ca2+]i increase in TRPA1-expressing CHO cells; type: cell-based; settings: for TRPA1 activation: Rose Bengal at 5 μM, supplemental Fig. 2; for [Ca2+]i-increase in TRPA1 CHO cells: at concentrations <50 μM, data not shown
rat DRG neurons [4] = settings: ref Andersson et al., 2007; cited from earlier work
rat DRG neurons [5] = test: Calcium imaging of rat DRG neurons; type: cell-based; settings: for capsaicin-sensitive DRG neurons that responded: 4-HNE 30 μM, 4-ONE 3 μM
mouse TRPA1 [6] = biological target: T1, mouse TRPA1; test: Voltage-clamp electrophysiology of TRPA1 CHO cells; type: cell-based; settings: for membrane current in TRPA1 CHO cells: whole-cell, holding potential -60 mV
trpa1-/- mice = test: Nocifensive/pain behaviour after intraplantar injection, trpa1-/- mice; type: in vivo, mouse; settings: intraplantar 2.2 μmol H2O2 or 32 nmol 15d-PGJ2 in 25 μl, 3 min, compared with wild-type
untransfected CHO cells = test: Responses; type: cell-based, Chinese hamster; settings: data not shown
wild-type mice = test: Nocifensive/pain behaviour after intraplantar injection, wild-type mice; type: in vivo, mouse; settings: intraplantar 2.2 μmol H2O2 or 32 nmol 15d-PGJ2 in 25 μl, 3 min
human TRPV1 = human TRPV1 (Homo sapiens, UniProt Q8NER1); test: Responses in CHO cells expressing TRPV1; type: cell-based; settings: data not shown
DRG neurons = test: Whole-cell voltage clamp of DRG neurons; type: cell-based, rat; settings: voltage ramp
[7] = test system: DRG neurons from trpv1-/- mice; test: Calcium imaging of DRG neurons from trpv1-/- mice; type: cell-based, mouse; settings: trpv1-/- mice (113 of 355)
[8] = test system: DRG neurons from wild-type mice; test: Calcium imaging of DRG neurons from wild-type mice; type: cell-based, mouse; settings: wild-type mice (134 of 445)

T1 sequence (Q8BLA8 whole entry): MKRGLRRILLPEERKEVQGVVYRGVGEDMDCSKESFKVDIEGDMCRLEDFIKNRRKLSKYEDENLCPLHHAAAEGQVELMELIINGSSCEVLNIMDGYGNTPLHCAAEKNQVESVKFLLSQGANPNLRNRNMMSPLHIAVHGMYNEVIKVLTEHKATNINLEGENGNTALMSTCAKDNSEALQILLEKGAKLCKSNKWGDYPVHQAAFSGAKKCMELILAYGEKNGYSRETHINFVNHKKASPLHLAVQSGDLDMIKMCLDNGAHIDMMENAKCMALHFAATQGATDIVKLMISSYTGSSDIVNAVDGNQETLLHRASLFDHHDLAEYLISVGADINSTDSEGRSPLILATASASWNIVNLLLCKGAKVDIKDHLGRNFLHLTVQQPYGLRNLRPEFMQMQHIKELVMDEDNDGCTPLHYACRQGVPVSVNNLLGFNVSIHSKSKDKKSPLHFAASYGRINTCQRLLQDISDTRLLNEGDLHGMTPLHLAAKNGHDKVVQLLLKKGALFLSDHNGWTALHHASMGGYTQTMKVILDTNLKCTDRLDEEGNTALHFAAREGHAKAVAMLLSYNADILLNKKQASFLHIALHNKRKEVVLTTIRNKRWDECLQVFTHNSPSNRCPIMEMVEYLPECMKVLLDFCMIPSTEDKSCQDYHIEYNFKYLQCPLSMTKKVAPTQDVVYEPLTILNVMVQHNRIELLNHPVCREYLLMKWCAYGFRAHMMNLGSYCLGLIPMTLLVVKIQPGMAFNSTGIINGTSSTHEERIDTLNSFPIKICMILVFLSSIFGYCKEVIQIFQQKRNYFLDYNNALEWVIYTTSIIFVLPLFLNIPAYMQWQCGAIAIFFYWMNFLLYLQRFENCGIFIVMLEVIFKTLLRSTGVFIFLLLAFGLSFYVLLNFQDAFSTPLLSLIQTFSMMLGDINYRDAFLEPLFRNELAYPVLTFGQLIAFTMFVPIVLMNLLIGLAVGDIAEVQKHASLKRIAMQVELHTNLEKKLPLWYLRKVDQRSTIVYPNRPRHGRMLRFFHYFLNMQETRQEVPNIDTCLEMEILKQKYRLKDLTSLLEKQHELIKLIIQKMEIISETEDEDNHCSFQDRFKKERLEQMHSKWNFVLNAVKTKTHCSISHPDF
Sequence of human TRPV1 (Q8NER1 whole entry): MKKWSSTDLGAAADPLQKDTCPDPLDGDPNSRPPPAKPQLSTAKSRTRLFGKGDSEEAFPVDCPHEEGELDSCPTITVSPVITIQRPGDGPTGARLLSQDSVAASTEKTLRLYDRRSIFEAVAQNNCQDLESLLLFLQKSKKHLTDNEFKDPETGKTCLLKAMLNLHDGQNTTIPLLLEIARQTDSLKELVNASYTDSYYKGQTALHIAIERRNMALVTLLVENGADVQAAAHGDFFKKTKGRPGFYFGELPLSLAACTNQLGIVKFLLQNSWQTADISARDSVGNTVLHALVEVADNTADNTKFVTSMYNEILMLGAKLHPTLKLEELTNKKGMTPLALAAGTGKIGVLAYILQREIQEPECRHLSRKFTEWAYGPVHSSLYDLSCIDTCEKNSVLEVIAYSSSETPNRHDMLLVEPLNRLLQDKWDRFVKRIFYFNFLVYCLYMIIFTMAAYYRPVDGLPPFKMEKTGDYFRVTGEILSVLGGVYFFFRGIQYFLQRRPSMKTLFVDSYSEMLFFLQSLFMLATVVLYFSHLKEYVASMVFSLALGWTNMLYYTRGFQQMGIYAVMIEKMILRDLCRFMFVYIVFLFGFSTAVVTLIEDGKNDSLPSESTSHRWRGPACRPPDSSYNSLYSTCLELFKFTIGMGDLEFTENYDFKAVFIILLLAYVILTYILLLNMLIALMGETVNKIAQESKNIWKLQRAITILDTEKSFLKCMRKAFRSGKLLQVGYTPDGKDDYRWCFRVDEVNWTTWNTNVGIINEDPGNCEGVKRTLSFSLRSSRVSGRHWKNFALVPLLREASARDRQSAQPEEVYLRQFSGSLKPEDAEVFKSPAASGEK

## C=CCN=C=S [AITC, allyl isothiocyanate]
[1]
  Response amplitude (% of K+): 86%
[2]
  Response amplitude (% of K+): 21%
Rat nodose neurons
  percentage of rat nodose neurons responding with [Ca2+]i increase: 54.0%

## O=C([O-])c1c(Cl)c(Cl)c(Cl)c(Cl)c1-c1c2cc(I)c(=O)c(I)c-2oc2c(I)c([O-])c(I)cc12.[Na+].[Na+] [Rose Bengal]
Mouse TRPA1 [3]
  TRPA1 activation: activated

## CC1CCC(C(C)C)C(O)C1 (stereo not shown) [menthol]
Rat DRG neurons [4]
  percentage of sensitive DRG neurons in DRG cultures: ~ 8%

## CCCCCC(=O)C=CC=O [4-ONE, 4-oxo-2-nonenal]
[1]
  Response amplitude (% of K+): 89%
Mouse TRPA1 [3]
  EC50: 1.9 µM
[2]
  Response amplitude (% of K+): 34%
Rat DRG neurons [5]
  capsaicin-sensitive DRG neurons that responded: Approximately 50%

## CCCCCC=CC=C1C(=O)C=C[C@@H]1CC=CCCCC(=O)O [15d-PGJ2, 15-deoxy-Δ^12,14-prostaglandin J2]
Mouse TRPA1 [6]
  membrane current in TRPA1 CHO cells: evoked inward currents
[1]
  Response amplitude (% of K+): 63%
trpa1-/- mice
  nocifensive/pain-related behaviour: greatly reduced or absent
[2]
  Response amplitude (% of K+): 47%
Untransfected CHO cells
  [Ca2+]i increase / membrane currents in untransfected CHO cells: had no effect
wild-type mice
  nocifensive/pain-related behaviour: marked nocifensive behaviors
Human TRPV1
  [Ca2+]i increase / membrane currents in TRPV1 expressing CHO cells: had no effect

## OO [H2O2, hydrogen peroxide]
Mouse TRPA1 [6]; TRPA1 CHO cells, voltage ramp, calcium-free solution
  reversal potential of evoked current: ~0 mV
Mouse TRPA1 [6]; cell-attached patches, -100 to +100 mV
  single-channel chord conductance: 94 ± 3 pS
Mouse TRPA1 [6]
  membrane current in TRPA1 CHO cells: evoked an inward current
[1]
  Response amplitude (% of K+): 70%
DRG neurons
  reversal potential of evoked current: -6 mV
Mouse TRPA1 [3]; DTT 1 mM
  reversal of [Ca2+]i response by dithiothreitol (DTT): reversed
Mouse TRPA1 [3]; TRPA1 CHO cells, after 90 s
  EC50 lower / potency increased in Fe2+-loaded vs untreated cells: ~ 20 fold and 20 fold
Mouse TRPA1 [3]; extracellularly applied
  concentrations that activate TRPA1: 50 to 100 µM
Mouse TRPA1 [3]; read-out: EC50, increase in [Ca2+]i in Fe2+-loaded cells, TRPA1 CHO cells preloaded with 100 μM FeSO4 for 1 h, after 90 s
  EC50: 53 ± 6 µM
Mouse TRPA1 [3]; read-out: EC50, increase in [Ca2+]i, TRPA1 CHO cells, after 90 s exposure
  EC50: 1200 ± 400 µM
Mouse TRPA1 [3]; read-out: EC50, increase in [Ca2+]i, TRPA1 CHO cells, after 600 s exposure (plateau)
  EC50: 230 µM
trpa1-/- mice
  nocifensive/pain-related behaviour: greatly reduced or absent
[7]
  proportion of sensitive DRG neurons: 31.8%
[2]
  Response amplitude (% of K+): 31%
Untransfected CHO cells; concentrations up to 100 mM
  currents in untransfected CHO cells: failed to evoke currents
wild-type mice
  nocifensive/pain-related behaviour: marked nocifensive behaviors
Rat nodose neurons
  percentage of rat nodose neurons responding with [Ca2+]i increase: 49.8%
Rat nodose neurons; rat nodose neurons, calcium imaging
  capsaicin-sensitive nodose neurons that did not respond: ~ 30%
Rat DRG neurons [5]; rat DRG neurons, calcium imaging
  capsaicin-sensitive DRG neurons that did not respond: ~ 50%
[8]
  proportion of sensitive DRG neurons: 30.1%

## CCCCC[C@H](O)/C=C/[C@H]1C=CC(=O)[C@@H]1C/C=C\CCCC(=O)O [PGA2]
Mouse TRPA1 [3]
  [Ca2+]i-increase in TRPA1 CHO cells: failed to elicit any significant [Ca^2+]i-increase

## CCCCC/C=C\C=C1\C(=O)CC[C@@H]1C/C=C\CCCC(=O)O [9,10-dihydro-15d-PGJ2]
Mouse TRPA1 [3]
  [Ca2+]i-increase in TRPA1 CHO cells: failed to elicit any significant [Ca^2+]i-increase

## Cc1ccc(S(=O)(=O)NCl)cc1 [chloramine T]
Mouse TRPA1 [3]
  TRPA1 activation: activated

## CCCCCC(O)/C=C/C=O (stereo not shown) [4-HNE, 4-hydroxynonenal]
Mouse TRPA1 [6]
  membrane current in TRPA1 CHO cells: evoked membrane currents
[1]
  Response amplitude (% of K+): 61%
[2]
  Response amplitude (% of K+): 34%
Rat DRG neurons [5]
  capsaicin-sensitive DRG neurons that responded: Approximately 50%

Source: article PMC2709206 (The Journal of neuroscience : the official journal of the …, 2008)
